According to patent US8242151B2, “Tricyclic compounds” (Kyowa Hakko Kirin Co., Ltd., priority 2007, dated 2012):

Experiments:
[1] = target: T1, GAL4-PPARγ chimeric nuclear receptor (human PPARγ ligand binding region) (Homo sapiens, UniProt P37231); test: Transactivation assay of PPARγ by transient gene transfer (GAL4-PPARγ luciferase reporter); assay type: cell-based; conditions: HEK293EBNA cells, 24 hr; concentration showing 50% of efficacy; activity relative to pioglitazone 10 μmol/L = 100%
T1 construct: expressed in transfected cells; host or cells: HEK293EBNA cells
T1 sequence (P37231 174-475 isoform P37231-2): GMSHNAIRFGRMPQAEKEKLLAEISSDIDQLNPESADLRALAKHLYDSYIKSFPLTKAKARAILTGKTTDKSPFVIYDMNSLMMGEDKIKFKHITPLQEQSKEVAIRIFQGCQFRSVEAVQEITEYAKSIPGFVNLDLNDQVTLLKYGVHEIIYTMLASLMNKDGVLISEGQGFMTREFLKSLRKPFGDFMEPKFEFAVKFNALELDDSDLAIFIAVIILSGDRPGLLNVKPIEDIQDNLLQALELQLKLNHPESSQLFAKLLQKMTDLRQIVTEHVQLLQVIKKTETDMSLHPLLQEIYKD
Experimental: The agonist activity of compound (I) to PPARγ was determined by a transactivation assay method using a chimeric nuclear receptor of a DNA binding region of a yeast transcription factor GAL4 and a PPARγ ligand binding region. Specifically, the PPARγ agonist activity of compound (I) was evaluated by the following method based on the method of Lehmann et al. (J Biol. Chem., 1995, vol. 270, page 12953).
HEK293EBNA cells cultured in Dulbecco's Modified Eagle medium (Invitrogen) containing 10 v/v % fetal calf serum (Invitrogen) were used. 30 mL of the above-mentioned cells (density: 1×10^5 cells/mL) were inoculated in a […] culture dish (Iwaki Glass), and cultured overnight. Using SuperFect Transfection Reagent (QIAGEN), a plasmid expressing a GAL4-PPARγ chimeric nuclear receptor fusing 174-475 amino acids, which are human PPARγ ligand binding region, and 1-147 amino acids, which are GAL4 DNA binding region, and a reporter plasmid expressing a GAL4 responsive luciferase were transiently introduced into the cells at a proportion of 4:1. After 5 hr from gene introduction, the cells were detached from the culture dish, and the detached cells (density: 2×10^4 cells/mL) were inoculated by 100 μL in each well of a 96 well white plate (SUMITOMO BAKELITE), and cultured overnight. The medium was removed, compound (I) diluted in various concentrations with serum-free Dulbecco's Modified Eagle medium was added by 100 μL, and the mixture was reacted under a 5% carbon dioxide gas stream (5% CO2) at 37° C. for 24 hr. On the other hand, as a positive control, 10 μmol/L of pioglitazone (100 μL) was added, and the mixture was reacted under a 5% carbon dioxide gas stream (5% CO2) at 37° C. for 24 hr. As a substrate of luciferase, 100 μL of Steady-Glo (Promega) was added to each well and the mixture was thoroughly stirred. Immediately thereafter, the chemical luminescence due to luciferase was measured using TopCount NTX (Packard).
The agonist activity (activity rate (%)) of compound (I) to PPARγ was calculated according to the following formula, as a relative activity when the agonist activity on addition of pioglitazone (10 μmol/L) was 100%.

[2] = test system: spontaneously hypertensive rats (SHR); test: Antihypertensive action by tail cuff method; assay type: in vivo, rat; conditions: oral once a day for 7 days, about 4 to 9 hr after final administration
Experimental: 18- to 22-week-old spontaneously hypertensive rats (SHR) were used.
Before drug administration, the body weight, blood pressure and heart rate of each rat were measured, and the rats were grouped such that these values are almost the same between groups. A solvent (0.5% methylcellulose solution) and a test compound were repeatedly administered orally once a day for 7 days. At about 4 to 9 hr after the final administration, systolic blood pressure and heart rate were non-invasively measured according to the following.
The rats were placed in a cylindrical restrainer, heated to 37° C., and blood pressure and heart rate were measured under resting state using a Tail Cuff Method. For the measurement, a non-invasive blood pressure measurement apparatus (PS-600, Riken Kaihatsu, Tokyo) was used. The blood pressure and heart rate of each rat was measured 5 times, and the average was taken as the value of each rat.

[3] = test system: spontaneously hypertensive rats (SHR); test: Antihypertensive action by telemetry method; assay type: in vivo, rat; conditions: oral once a day for 4 days, 24 hr averages
Source text: A telemetry transmitter was indwelled in the abdominal artery of spontaneously hypertensive rats (SHR), and the blood pressure and heart rate were monitored. The rats were acclimated and reared for 4 weeks or more, and only the rats with hypertension were used for the test. Before drug administration, the rats were grouped such that the blood pressure and heart rate of each rat would be of the same levels between the groups. A solvent (0.5% methylcellulose solution) and a test compound were repeatedly administered orally once a day for 4 days. The average systolic blood pressure for 24 hr, average diastolic blood pressure for 24 hr and average heart rate for 24 hr were calculated on each administration day.

Compound	EC50 [1]	antihypertensive action (systolic blood pressure, tail cuff) [2]	antihypertensive action (blood pressure, telemetry) [3]
CCc1nc2c(C)cc(C)nc2n1Cc1ccc2c(c1)CCc1ccccc1N2Cc1nnn[nH]1 [Compound S13, 2-(2-ethyl-5,7-dimethyl-3H-imidazo[4,5-b]pyridin-3-yl)methyl-5-(1H-tetrazol-5-yl)methyl-10,11-dihydro-5H-dibenzo[b,f]azepine]	4560 nM	antihypertensive action	antihypertensive action
CCc1nc2c(Cl)ccnc2n1Cc1ccc2c(c1)COc1ccccc1/C2=C(/C)c1noc(=O)[nH]1 [Compound 137, (Z)-8-(7-chloro-2-ethyl-3H-imidazo[4,5-b]pyridin-3-yl)methyl-11-[1-(5-oxo-4,5-dihydro-1,2,4-oxadiazol-3-yl)ethylidene]-6,11-dihydrodibenzo[b,e]oxepine]	1840 nM	antihypertensive action	antihypertensive action
CCc1nc2c(C)ccnc2n1Cc1ccc2c(c1)CCc1ccccc1N2C(C)c1nnn[nH]1 (stereo not drawn) [Compound 26, 2-(2-ethyl-7-methyl-3H-imidazo[4,5-b]pyridin-3-yl)methyl-5-[1-(1H-tetrazol-5-yl)ethyl]-10,11-dihydro-5H-dibenzo[b,f]azepine]		antihypertensive action	
CCc1nc2c(C)ccnc2n1Cc1ccc2c(c1)CCc1ccccc1/C2=C(/C)c1nnn[nH]1 [Compound 47, (E)-2-(2-ethyl-7-methyl-3H-imidazo[4,5-b]pyridin-3-yl)methyl-5-[1-(1H-tetrazol-5-yl)ethylidene]-10,11-dihydro-5H-dibenzo[a,d]cycloheptene]	1930 nM	antihypertensive action	antihypertensive action
C/C(=C1/c2ccccc2CCc2cc(Cn3c(C4CC4)nc4c(C)ccnc43)ccc21)c1nnn[nH]1 [Compound 100, (E)-2-(2-cyclopropyl-7-methyl-3H-imidazo[4,5-b]pyridin-3-yl)methyl-5-[1-(1H-tetrazol-5-yl)ethylidene]-10,11-dihydro-5H-dibenzo[a,d]cycloheptene]	1020 nM		antihypertensive action
CCc1nc2c(C)cc(C)nc2n1Cc1ccc2c(c1)CCc1ccccc1C2=CC#N [Compound S15, [2-(2-ethyl-5,7-dimethyl-3H-imidazo[4,5-b]pyridin-3-yl)methyl-10,11-dihydro-5H-dibenzo[a,d]cyclohepten-5-ylidene]acetonitrile]	1250 nM		antihypertensive action
C/C(=C1\c2ccc(Cn3c(C4CC4)nc4c(Cl)cccc43)cc2COc2ccccc21)c1noc(=O)[nH]1 [Compound 147, (Z)-8-(4-chloro-2-cyclopropylbenzimidazol-1-yl)methyl-11-[1-(5-oxo-4,5-dihydro-1,2,4-oxadiazol-3-yl)ethylidene]-6,11-dihydrodibenzo[b,e]oxepine]	226 nM		antihypertensive action
CCOc1nc2c(Cl)ccnc2n1Cc1ccc2c(c1)COc1ccccc1/C2=C(/C)c1noc(=O)[nH]1 [Compound 138, (Z)-8-(7-chloro-2-ethoxy-3H-imidazo[4,5-b]pyridin-3-yl)methyl-11-[1-(5-oxo-4,5-dihydro-1,2,4-oxadiazol-3-yl)ethylidene]-6,11-dihydrodibenzo[b,e]oxepine]	550 nM		antihypertensive action
CCc1nc2c(C)cc(C)nc2n1Cc1ccc2c(c1)CCc1ccccc1/C2=C(/C)c1nnn[nH]1 [Compound 45, (E)-2-(2-ethyl-5,7-dimethyl-3H-imidazo[4,5-b]pyridin-3-yl)methyl-5-[1-(1H-tetrazol-5-yl)ethylidene]-10,11-dihydro-5H-dibenzo[a,d]cycloheptene]	1090 nM		antihypertensive action
CCOc1nc2c(C)cc(C)nc2n1Cc1ccc2c(c1)CCc1ccccc1/C2=C(/C)c1noc(=O)[nH]1 [Compound 86, (E)-2-(2-ethoxy-5,7-dimethyl-3H-imidazo[4,5-b]pyridin-3-yl)methyl-5-[1-(5-oxo-4,5-dihydro-1,2,4-oxadiazol-3-yl)ethylidene]-10,11-dihydro-5H-dibenzo[a,d]cycloheptene]	323 nM		antihypertensive action
C/C(=C1\c2ccc(Cn3c(C4CC4)nc4c(Cl)ccnc43)cc2COc2ccccc21)c1noc(=O)[nH]1 [Compound 139, (Z)-8-(7-chloro-2-cyclopropyl-3H-imidazo[4,5-b]pyridin-3-yl)methyl-11-[1-(5-oxo-4,5-dihydro-1,2,4-oxadiazol-3-yl)ethylidene]-6,11-dihydrodibenzo[b,e]oxepine]		antihypertensive action	
CCOc1nc2c(Cl)cccc2n1Cc1ccc2c(c1)COc1ccccc1/C2=C(/C)c1noc(=O)[nH]1 [Compound 146, (Z)-8-(4-chloro-2-ethoxybenzimidazol-1-yl)methyl-11-[1-(5-oxo-4,5-dihydro-1,2,4-oxadiazol-3-yl)ethylidene]-6,11-dihydrodibenzo[b,e]oxepine]	336 nM		antihypertensive action
CCOc1nc2c(C)cc(C)nc2n1Cc1ccc2c(c1)COc1ccccc1/C2=C\c1noc(=O)[nH]1 [Compound 124, (Z)-8-(2-ethoxy-5,7-dimethyl-3H-imidazo[4,5-b]pyridin-3-yl)methyl-11-(5-oxo-4,5-dihydro-1,2,4-oxadiazol-3-yl)methylene-6,11-dihydrodibenzo[b,e]oxepine]	320 nM		antihypertensive action
CCc1nc2c(C)cc(C)nc2n1Cc1ccc2c(c1)CCc1ccccc1/C2=C\c1nnn[nH]1 [Compound S16, (E)-2-(2-ethyl-5,7-dimethyl-3H-imidazo[4,5-b]pyridin-3-yl)methyl-5-(1H-tetrazol-5-yl)methylene-10,11-dihydro-5H-dibenzo[a,d]cycloheptene]	305 nM		antihypertensive action
CCc1nc2c(C)cc(C)nc2n1Cc1ccc2c(c1)COc1ccccc1/C2=C\c1noc(=O)[nH]1 [Compound 118, (Z)-8-(2-ethyl-5,7-dimethyl-3H-imidazo[4,5-b]pyridin-3-yl)methyl-11-(5-oxo-4,5-dihydro-1,2,4-oxadiazol-3-yl)methylene-6,11-dihydrodibenzo[b,e]oxepine]	348 nM		antihypertensive action
Cc1cc(C)c2nc(C3CC3)n(Cc3ccc4c(c3)CCc3ccccc3N4C(C)c3nnn[nH]3)c2n1 (stereo not drawn) [Compound 71, 2-(2-cyclopropyl-5,7-dimethyl-3H-imidazo[4,5-b]pyridin-3-yl)methyl-5-[1-(1H-tetrazol-5-yl)ethyl]-10,11-dihydro-5H-dibenzo[b,f]azepine]	235 nM		antihypertensive action
